# Numbering of substitutions follows the chain as printed. Several values for one entry are separate records, joined by “and”; a condition that tells them apart may be missing. Equal values may be shown once.
# Assays:
# R190C ATR [1] = target: T1, R190C ATR (Homo sapiens, UniProt Q96EY8, R190C); assay: EPR spectroscopy of cob(II)alamin with ATR and ATP; assay type: binding; parameters: The expression construct for recombinant human full-length and ΔN18 ATR in a pET-28b vector; His-tag (thrombin-cleavable) (N, cleaved yes); made in house; host or cells: E. coli BL21 (DE3); details: R190C ATR 500 μM trimer, cob(II)alamin 300 μM, 5 mM ATP, 100 K
# T1 sequence (Q96EY8 38-250 R190C limits assumed): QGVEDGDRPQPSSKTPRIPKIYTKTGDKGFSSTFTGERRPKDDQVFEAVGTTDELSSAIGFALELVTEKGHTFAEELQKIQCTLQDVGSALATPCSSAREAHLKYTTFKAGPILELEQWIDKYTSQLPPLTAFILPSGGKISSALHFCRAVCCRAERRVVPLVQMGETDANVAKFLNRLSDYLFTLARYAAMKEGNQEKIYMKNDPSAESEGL
# Description: (§1) EPR spectra were recorded on a Bruker EMX 300 equipped with a Bruker 4201 cavity and a Varian liquid nitrogen cryostat. The temperature was controlled by an Oxford Instruments ITC4 temperature controller. The samples were prepared inside an anaerobic chamber (O2 < 0.3 ppm) and contained 300 μM cob(II)alamin, 5 mM ATP and WT ATR (200 μM trimer) or 500 μM (trimer) E193K, R190C or R190H ATR in 50 mM Hepes pH 7.5, 150 mM KCl, 2 mM MgCl2, 2 mM TCEP, and 10% glycerol. The following instrument settings were employed: microwave frequency, 9.27 GHz; power, 2.0 mW; modulation amplitude, 1.0 mT; modulation frequency, 100 kHz; temperature, 100 K. Five scans were acquired for each sample. A buffer spectrum was subtracted from the sample spectrum. The EPR simulations were performed using the EasySpin program ([36]).
# WT ATR = target: T2, WT ATR (Homo sapiens, UniProt Q96EY8); assay: Cob(II)alamin binding to ATR, UV-visible titration; parameters: The expression construct for recombinant human full-length and ΔN18 ATR in a pET-28b vector; His-tag (thrombin-cleavable) (N, cleaved yes); made in house; host or cells: E. coli BL21 (DE3); details: 1 mM ATP, anaerobic, buffer A
# T2 sequence (Q96EY8 38-250 limits assumed): T1 sequence (Q96EY8 38-250 R190C limits assumed) with C153R
# Description: (§2) Cob(II)alamin binding to ATR was determined by the titrations performed in the anaerobic chamber (<0.2 ppm O2 levels). The increasing concentrations of WT or mutant ATR were added to 30 μM cob(II)alamin and 1 mM ATP in buffer A. The concentration of bound cob(II)alamin was determined using Δε474nm = 5.1 cm^−1 mM^−1. The change in absorbance at 464 nm, corresponding to the base-off ATR-bound cob(II)alamin was plotted against ATR concentration, and the data were analyzed using Equation 1, as described above.
# R190C ATR [2] = target: T1, R190C ATR; assay: Cob(II)alamin binding to ATR, UV-visible titration; parameters: The expression construct for recombinant human full-length and ΔN18 ATR in a pET-28b vector; His-tag (thrombin-cleavable) (N, cleaved yes); made in house; host or cells: E. coli BL21 (DE3); details: 1 mM ATP, anaerobic, buffer A
# Description: as §2
# E193K ATR [3] = target: T3, E193K ATR (Homo sapiens, UniProt Q96EY8, E193K); assay: EPR spectroscopy of cob(II)alamin with ATR and ATP; assay type: binding; parameters: WT and the R190C variants of ΔN18-ATR and full-length E193K ATR were purified; His-tag (thrombin-cleavable) (N, cleaved yes); made in house; host or cells: E. coli BL21 (DE3); details: E193K ATR 500 μM trimer, cob(II)alamin 300 μM, 5 mM ATP, 100 K
# T3 sequence (Q96EY8 38-250 E193K limits assumed): T1 sequence (Q96EY8 38-250 R190C limits assumed) with C153R, E156K
# Description: as §1
# R190H ATR [4] = target: T4, R190H ATR (Homo sapiens, UniProt Q96EY8, R190H); assay: Cob(II)alamin binding to ATR, UV-visible titration; details: 1 mM ATP, anaerobic, buffer A
# T4 construct: The expression construct for recombinant human full-length and ΔN18 ATR in a pET-28b vector; His-tag (thrombin-cleavable) (N, cleaved yes); made in house; host or cells: E. coli BL21 (DE3)
# T4 sequence (Q96EY8 38-250 R190H limits assumed): T1 sequence (Q96EY8 38-250 R190C limits assumed) with C153H
# Description: as §2
# E193K ATR [5] = target: T3, E193K ATR; assay: Cob(II)alamin binding, separation of unbound ligand with 10 kDa cut-off filter; parameters: WT and the R190C variants of ΔN18-ATR and full-length E193K ATR were purified; His-tag (thrombin-cleavable) (N, cleaved yes); made in house; host or cells: E. coli BL21 (DE3)
# Description: Although we were unable to determine the KM for cob(II)alamin because of technical limitations of the steady-state assay, the KD for this substrate was determined. In the presence of ATP, cob(II)alamin binds to ATR in a four-coordinate base-off conformation ([17]), which is signaled by a blue shift in the absorption maximum from 474 to 464 nm and an increase in absorption intensity (Fig. 2C). […] In contrast, spectral changes in cob(II)alamin were not observed with E193K ATR (Fig. 2D), indicating either greatly weakened affinity or the presence of bound five-coordinate cob(II)alamin. […] Although some cob(II)alamin (18 μM) was present in the filtrate, the remainder was bound to ATR (Fig. 2D).
# R190H ATR [6] = target: T4, R190H ATR; assay: EPR spectroscopy of cob(II)alamin with ATR and ATP; assay type: binding; details: R190H ATR 500 μM trimer, cob(II)alamin 300 μM, 5 mM ATP, 100 K
# Description: as §1
smiles,measurement,setting,value
C/C1=C2/[N-][C@H]([C@H](CC(N)=O)[C@@]2(C)CCC(=O)NC[C@@H](C)OP(=O)([O-])O[C@H]2[C@@H](O)[C@@H](n3cnc4cc(C)c(C)cc43)O[C@@H]2CO)[C@]2(C)N=C(/C(C)=C3N=C(/C=C4N=C1[C@@H](CCC(N)=O)C\4(C)C)[C@@H](CCC(N)=O)[C@]\3(C)CC(N)=O)[C@@H](CCC(N)=O)[C@]2(C)CC(N)=O.[Co+2] [cob(II)alamin],"four-coordinate base-off cob(II)alamin, share of EPR spectrum",R190C ATR [1],75%
same,"unbound five-coordinate base-on cob(II)alamin, share of EPR spectrum",R190C ATR [1],25%
same,Kd,WT ATR,0.08 ± 0.01 µM
same,Kd,R190C ATR [2],46 ± 10 µM
same,"five-coordinate base-off cob(II)alamin, share of EPR spectrum",E193K ATR [3],76% and ~80%
same,"free base-on cob(II)alamin, share of EPR spectrum",E193K ATR [3],24% and 20%
same,Kd,R190H ATR [4],38.5 ± 16.5 µM
same,cob(II)alamin in the filtrate (unbound),E193K ATR [5]; E193K ATR 1.5 mM,18%
same,cob(II)alamin present in the filtrate (unbound),"E193K ATR [5]; cob(II)alamin 100 μM, E193K ATR 500 μM trimer, ATP 2 mM",18 µM
same,"four-coordinate base-off cob(II)alamin, share of EPR spectrum",R190H ATR [6],75%
same,"unbound five-coordinate base-on cob(II)alamin, share of EPR spectrum",R190H ATR [6],25%

# — PMC8633584, “Patient mutations in human ATP:cob(I)alamin adenosyltransferase differentially affect its catalytic versus chaperone functions” (The Journal of Biological Chemistry, 2021)
